Results reported in patent US20250154173A1 (Merck Sharp & Dohme LLC, priority 2023, published 2025).

Target: T1, GST-RIPK1 (recombinant GST-RIPK1 kinase domain (residues 1-327)) (Homo sapiens, UniProt Q13546)
T1 construct: recombinant GST-RIPK1 kinase domain (residues 1-327) enzyme produced from baculovirus-transfected Sf21 cells; host or cells: baculovirus-transfected Sf21 insect cells
T1 sequence (Q13546 1-327): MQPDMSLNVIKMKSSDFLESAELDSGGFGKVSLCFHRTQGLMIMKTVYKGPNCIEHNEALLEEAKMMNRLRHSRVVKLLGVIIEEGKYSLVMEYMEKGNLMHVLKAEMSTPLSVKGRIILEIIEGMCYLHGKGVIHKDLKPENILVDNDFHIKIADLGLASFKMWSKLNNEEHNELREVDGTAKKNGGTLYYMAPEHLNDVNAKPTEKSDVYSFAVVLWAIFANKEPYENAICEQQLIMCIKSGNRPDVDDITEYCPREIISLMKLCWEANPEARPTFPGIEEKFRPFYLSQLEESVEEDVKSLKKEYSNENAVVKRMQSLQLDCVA
Assay: RIPK1-ADP-Glo Enzymatic Assay
Format: biochemical
Conditions: ten-point titration, top compound concentration of 100000 nM; 25 nM GST-RIPK1, 300 μM ATP, 3 μM dephosphorylated-MBP; 30 min pre-incubation, 150 min reaction
Method in brief: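 GST-RIPK1 kinase domain (residues 1-327, Sf21-expressed), 25 nM, preincubated 30 min with compound, then reacted 150 min with 300 μM ATP and 3 μM dephosphorylated MBP in pH 7.3 Hepes buffer, 1% DMSO. ADP measured by ADP-Glo luminescence; EC50 from ten-point titration (top 100000 nM), four-parameter fit.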

N#Cc1cc(O[C@H]2C[C@@]3(C2)O[C@@H]2CC[C@@H](c4ccc(F)cn4)N2C3=O)ncn1 [Example 9.47, 6-{[(5′S,7a′R)-5′-(5-fluoropyridin-2-yl)-3′-oxotetrahydro-3′H-spiro[cyclobutane-1,2′-pyrrolo[2,1-b][1,3]oxazol]-3-yl]oxy}pyrimidine-4-carbonitrile]
EC50: 24 nM

O=C1N2[C@@H](CC[C@H]2c2ccc(F)cc2)O[C@]12C[C@H](Oc1cncc(F)c1)C2 [Example 9.48, (1r,3R,5′S,7a′R)-5′-(4-fluorophenyl)-3-[(5-fluoropyridin-3-yl)oxy]tetrahydro-3′H-spiro[cyclobutane-1,2′-pyrrolo[2,1-b][1,3]oxazol]-3′-one]
EC50: 20 nM

N#Cc1cncc(O[C@H]2C[C@@]3(C2)O[C@@H]2CC[C@@H](c4ccc(F)cc4)N2C3=O)c1 [Example 9.49, 5-{[(1r,3R,5′S,7a′R)-5′-(4-fluorophenyl)-3′-oxotetrahydro-3′H-spiro[cyclobutane-1,2′-pyrrolo[2,1-b][1,3]oxazol]-3-yl]oxy}pyridine-3-carbonitrile]
EC50: 15 nM

N#Cc1cc(O[C@H]2C[C@@]3(C2)O[C@H]2CC[C@H](c4cnccn4)N2C3=O)ncn1 [Example 9.50, 6-(((5′R,7a′S)-3′-oxo-5′-(pyrazin-2-yl)tetrahydro-3′H-spiro[cyclobutane-1,2′-pyrrolo[2,1-b]oxazol]-3-yl)oxy)pyrimidine-4-carbonitrile]
EC50: 330 nM

O=C1N2[C@H](CC[C@H]2c2cnccn2)O[C@]12C[C@@H](Oc1ncnn3cccc13)C2 [Example 9.51, (1s,3R,5′R,7a′S)-5′-(pyrazin-2-yl)-3-(pyrrolo[2,1-f][1,2,4]triazin-4-yloxy)tetrahydro-3′H-spiro[cyclobutane-1,2′-pyrrolo[2,1-b]oxazol]-3′-one]
EC50: 56 nM

Cc1nnc(-c2cc(O[C@H]3C[C@@]4(C3)O[C@@H]3CC[C@@H](c5cc(F)cc(F)c5)N3C4=O)ncn2)o1 [Example 9.53, (5′S,7a′R)-5′-(3,5-difluorophenyl)-3-((6-(5-methyl-1,3,4-oxadiazol-2-yl)pyrimidin-4-yl)oxy)tetrahydro-3′H-spiro[cyclobutane-1,2′-pyrrolo[2,1-b]oxazol]-3′-one]
EC50: 50 nM

O=C1N2[C@@H](CC[C@H]2c2cc(F)cc(F)c2)O[C@]12C[C@H](Oc1cc(-c3cnn(C(F)F)c3)ncn1)C2 [Example 9.54, (5′S,7a′R)-3-((6-(1-(difluoromethyl)-1H-pyrazol-4-yl)pyrimidin-4-yl)oxy)-5′-(3,5-difluorophenyl)tetrahydro-3′H-spiro[cyclobutane-1,2′-pyrrolo[2,1-b]oxazol]-3′-one]
EC50: 24 nM

Cn1nccc1-c1cc(O[C@H]2C[C@@]3(C2)O[C@@H]2CC[C@@H](c4cc(F)cc(F)c4)N2C3=O)ncn1 [Example 9.55, (5′S,7a′R)-5′-(3,5-difluorophenyl)-3-((6-(1-methyl-1H-pyrazol-5-yl)pyrimidin-4-yl)oxy)tetrahydro-3′H-spiro[cyclobutane-1,2′-pyrrolo[2,1-b]oxazol]-3′-one]
EC50: 13 nM

O=C1N2[C@@H](CC[C@H]2c2cc(F)cc(F)c2)O[C@]12C[C@H](Oc1cc(-n3cc(C(F)F)cn3)ncn1)C2 [Example 9.56, (5′S,7a′R)-3-((6-(4-(difluoromethyl)-1H-pyrazol-1-yl)pyrimidin-4-yl)oxy)-5′-(3,5-difluorophenyl)tetrahydro-3′H-spiro[cyclobutane-1,2′-pyrrolo[2,1-b]oxazol]-3′-one]
EC50: 18 nM

N#Cc1ccnc(O[C@H]2C[C@@]3(C2)O[C@@H]2CC[C@@H](c4cc(F)cc(F)c4)N2C3=O)n1 [Example 9.57, 2-(((1r,3R,5′S,7a′R)-5′-(3,5-difluorophenyl)-3′-oxotetrahydro-3′H-spiro[cyclobutane-1,2′-pyrrolo[2,1-b]oxazol]-3-yl)oxy)pyrimidine-4-carbonitrile]
EC50: 69 nM

O=C1N2[C@@H](CC[C@H]2c2ccc(F)cc2)OC12CC(Oc1nccn3ccnc13)C2 (stereo partly drawn) [Example 9.58, (5′S,7a′R)-5′-(4-fluorophenyl)-3-[(imidazo[1,2-a]pyrazin-8-yl)oxy]tetrahydro-3′H-spiro[cyclobutane-1,2′-pyrrolo[2,1-b][1,3]oxazol]-3′-one]
EC50: 467 nM

O=C1N2[C@@H](CC[C@H]2c2ccc(F)cc2)OC12CC(Oc1nccn3ncnc13)C2 (stereo partly drawn) [Example 9.59, (5′S,7a′R)-5′-(4-fluorophenyl)-3-[([1,2,4]triazolo[1,5-a]pyrazin-8-yl)oxy]tetrahydro-3′H-spiro[cyclobutane-1,2′-pyrrolo[2,1-b][1,3]oxazol]-3′-one]
EC50: 71.9 nM

O=C1N2[C@@H](CC[C@H]2c2ccc(F)cc2)OC12CC(OCc1cccnc1)C2 (stereo partly drawn) [Example 9.60, (5′S,7a′R)-5′-(4-fluorophenyl)-3-[(pyridin-3-yl)methoxy]tetrahydro-3′H-spiro[cyclobutane-1,2′-pyrrolo[2,1-b][1,3]oxazol]-3′-one]
EC50: 188 nM

O=C1N2[C@@H](CC[C@H]2c2ccc(F)cc2)OC12CC(OCc1ccncc1)C2 (stereo partly drawn) [Example 9.61, (5′S,7a′R)-5′-(4-fluorophenyl)-3-[(pyridin-4-yl)methoxy]tetrahydro-3′H-spiro[cyclobutane-1,2′-pyrrolo[2,1-b][1,3]oxazol]-3′-one]
EC50: 104 nM

O=C1N2[C@@H](CC[C@H]2c2ncccc2F)OC12CC(Oc1ncnn3cccc13)C2 (stereo partly drawn) [Example 9.62, (5′S,7a′R)-5′-(3-fluoropyridin-2-yl)-3-[(pyrrolo[2,1-f][1,2,4]triazin-4-yl)oxy]tetrahydro-3′H-spiro[cyclobutane-1,2′-pyrrolo[2,1-b][1,3]oxazol]-3′-one]
EC50: 10.2 nM

Cn1ccc([C@@H]2CC[C@H]3O[C@]4(C[C@H](Oc5ncnn6cccc56)C4)C(=O)N32)n1 [Example 9.63, (1r,3R,5′S,7a′R)-5′-(1-methyl-1H-pyrazol-3-yl)-3-[(pyrrolo[2,1-f][1,2,4]triazin-4-yl)oxy]tetrahydro-3′H-spiro[cyclobutane-1,2′-pyrrolo[2,1-b][1,3]oxazol]-3′-one]
EC50: 33.3 nM

Cn1ccc([C@@H]2CC[C@H]3OC4(CC(Oc5cnccn5)C4)C(=O)N32)n1 (stereo partly drawn) [Example 9.64, (5′S,7a′R)-5′-(1-methyl-1H-pyrazol-3-yl)-3-[(pyrazin-2-yl)oxy]tetrahydro-3′H-spiro[cyclobutane-1,2′-pyrrolo[2,1-b][1,3]oxazol]-3′-one]
EC50: 124 nM

O=C1N2C(CCC2c2ccc(F)cn2)OC12CC(Oc1ncnn3cccc13)C2 (stereo not shown) [Example 9.65, 5′-(5-fluoropyridin-2-yl)-3-[(pyrrolo[2,1-f][1,2,4]triazin-4-yl)oxy]tetrahydro-3′H-spiro[cyclobutane-1,2′-pyrrolo[2,1-b][1,3]oxazol]-3′-one]
EC50: 13 nM

O=C1N2[C@@H](CC[C@H]2c2cnccn2)OC12CC(Oc1cnccn1)C2 (stereo partly drawn) [Example 9.66, (5′S,7a′R)-5′-(pyrazin-2-yl)-3-[(pyrazin-2-yl)oxy]tetrahydro-3′H-spiro[cyclobutane-1,2′-pyrrolo[2,1-b][1,3]oxazol]-3′-one]
EC50: 21 nM

N#Cc1ccnc(O[C@H]2C[C@@]3(C2)O[C@@H]2CC[C@@H](c4cc(F)cc(F)c4)N2C3=O)c1 [Example 10.1, 2-(((1r,3R,5′S,7a′R)-5′-(3,5-difluorophenyl)-3′-oxotetrahydro-3′H-spiro[cyclobutane-1,2′-pyrrolo[2,1-b]oxazol]-3-yl)oxy)isonicotinonitrile]
EC50: 9 nM

NC(=O)c1ccnc(O[C@H]2C[C@@]3(C2)O[C@@H]2CC[C@@H](c4cc(F)cc(F)c4)N2C3=O)c1 [Example 10.2, 2-(((1r,3R,5′S,7a′R)-5′-(3,5-difluorophenyl)-3′-oxotetrahydro-3′H-spiro[cyclobutane-1,2′-pyrrolo[2,1-b]oxazol]-3-yl)oxy)isonicotinamide]
EC50: 18 nM

O=C1N2[C@@H](CC[C@H]2c2cc(F)cc(F)c2)O[C@]12C[C@H](Oc1cc(-c3nn[nH]n3)ccn1)C2 [Example 10.3, (1r,3R,5′S,7a′R)-3-((4-(2H-tetrazol-5-yl)pyridin-2-yl)oxy)-5′-(3,5-difluorophenyl)tetrahydro-3′H-spiro[cyclobutane-1,2′-pyrrolo[2,1-b]oxazol]-3′-one]
EC50: 11 nM

N#Cc1ccnc(O[C@H]2C[C@@]3(C2)O[C@@H]2CC[C@@H](c4ccccc4)N2C3=O)c1 [Example 10.4, 2-(((1r,3R,5′S,7a′R)-3′-oxo-5′-phenyltetrahydro-3′H-spiro[cyclobutane-1,2′-pyrrolo[2,1-b]oxazol]-3-yl)oxy)isonicotinonitrile]
EC50: 13 nM

NC(=O)c1ccnc(O[C@H]2C[C@@]3(C2)O[C@@H]2CC[C@@H](c4ccccc4)N2C3=O)c1 [Example 10.5, 2-(((1r,3R,5′S,7a′R)-3′-oxo-5′-phenyltetrahydro-3′H-spiro[cyclobutane-1,2′-pyrrolo[2,1-b]oxazol]-3-yl)oxy)isonicotinamide]
EC50: 20 nM

NC(=O)c1ccnc(O[C@H]2C[C@@]3(C2)O[C@@H]2CC[C@@H](c4ccc(F)cc4)N2C3=O)c1 [Example 10.6, 2-(((1r,3R,5′S,7a′R)-5′-(4-fluorophenyl)-3′-oxotetrahydro-3′H-spiro[cyclobutane-1,2′-pyrrolo[2,1-b]oxazol]-3-yl)oxy)isonicotinamide]
EC50: 52 nM
